pEC50: −log10 of the molar value.
What follows are compounds tested against T1, 5-HT1AR (serotonin 1A receptor) (Homo sapiens, UniProt P08908) (assay: G protein nanoBRET).
T1 sequence (P08908 1-422): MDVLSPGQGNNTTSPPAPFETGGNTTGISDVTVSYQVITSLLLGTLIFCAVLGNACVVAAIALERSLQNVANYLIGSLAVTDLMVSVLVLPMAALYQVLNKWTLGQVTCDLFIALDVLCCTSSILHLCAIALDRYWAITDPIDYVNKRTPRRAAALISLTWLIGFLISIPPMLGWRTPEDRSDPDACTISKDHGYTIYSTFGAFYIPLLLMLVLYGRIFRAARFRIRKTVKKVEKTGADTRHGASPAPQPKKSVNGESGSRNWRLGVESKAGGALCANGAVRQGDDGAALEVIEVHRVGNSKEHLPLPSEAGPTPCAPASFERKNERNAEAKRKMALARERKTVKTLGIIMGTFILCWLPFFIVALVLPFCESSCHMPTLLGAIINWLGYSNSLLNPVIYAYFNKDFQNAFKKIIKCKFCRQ
Assay type: cell-based

**Q.** How did the pEC50 turn out when `Cc1cnc(CNCC2(F)CCN(C(=O)c3ccc(F)c(Cl)c3)CC2)nc1` [F-15599] was run?
**A.** Its pEC50 is 6.27.

**Q.** With `O=c1[nH]c2ccccc2n1CCN1CCN(c2cccc(C(F)(F)F)c2)CC1` [Flibanserin] as the compound, how does the pEC50 read?
**A.** Its pEC50 is 6.77.

**Q.** With `COc1cc2c3c(c1OC)-c1ccccc1C[C@H]3N(C)CC2` [Nuciferine] as the compound, how does the pEC50 read?
**A.** The pEC50 was 4.78.
